Data taken from patent US4157347A, “N-cyano isothioureas” (Bristol-Myers Company, priority 1978, dated 1979).
“Also recorded” adds a separate entry of the source. Read-outs that look alike come from different tables or passages of the source. Each block holds one compound with its values, some of them ahead of it.

Legend:
histamine H2-receptors = molecular target: T1, histamine H2-receptors (Cavia porcellus, UniProt P47747); assay: Histamine H2-receptor antagonism, isolated guinea pig right atria assay; type: cell-based; conditions: for Histamine ED50 With 95% Confidence Limits: histamine ED50 in presence of test compound 1 × 10^-5 M, 30 min incubation; for Concentration-Response Curve Displacement Factor: test compound 1 × 10^-5 M
T1 construct: The spontaneously beating right atrium was dissected free from other tissues; from tissue; host or cells: isolated spontaneously beating right atrium of male Hartley guinea pigs
T1 sequence (P47747 whole entry): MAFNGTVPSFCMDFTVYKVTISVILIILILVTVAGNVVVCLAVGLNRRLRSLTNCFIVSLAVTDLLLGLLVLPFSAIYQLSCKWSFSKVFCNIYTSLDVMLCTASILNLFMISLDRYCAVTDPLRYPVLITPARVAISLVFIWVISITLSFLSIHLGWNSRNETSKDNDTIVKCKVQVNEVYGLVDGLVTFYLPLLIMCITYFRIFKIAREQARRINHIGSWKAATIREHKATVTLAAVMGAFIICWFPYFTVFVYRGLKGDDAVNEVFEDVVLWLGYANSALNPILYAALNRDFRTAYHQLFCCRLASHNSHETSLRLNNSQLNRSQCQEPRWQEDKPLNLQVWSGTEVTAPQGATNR
Experimental: Subsequent investigations by Hughes and Coret, Proc. Soc. […] Black et al., Agents and Actions, 3, 133 (1973) and Brimblecombe et al., Fed. […] The present comparative studies were carried out using a modification of the procedure reported by Reinhardt et al., Agents and Actions, 4, 217 (1974).
Male Hartley strain guinea pigs (350-450 gm.) were sacrificed by a blow on the head. The heart was excised and placed in a Petri dish of oxygenated (95% O2, 5% CO2) modified Krebs solution (g./liter: NaCl 6.6, KCl 0.35, MgSO4.7 H2 O 0.295, KH2 PO4 0.162, CaCl2 0.238, NaHCO3 2.1 and dextrose 2.09). The spontaneously beating right atrium was dissected free from other tissues and a silk thread (4-0) attached to each end. The atrium was suspended in a 20 ml. muscle chamber containing oxygenated modified Krebs solution maintained at 32° C. Atrial contractions were recorded isometrically by means of a Grass FT 0.03 force displacement transducer and recordings of contractile force and rate were made with a Beckman RP Dynograph.
A resting tension of 1 g. was applied to the atrium and it was allowed to equilibrate for 1 hour.
Concentration-response curve displacement factors were calculated as follows: [formula] The factor obtained for BL-5641 was then expressed as a ratio of the factor obtained for cimetidine. [formula]

gastric acid output = assay: Gastric antisecretory activity in the two hour pylorus ligated (Shay) rat; type: in vivo, rat (male Long Evans)
From the text: Determination of Gastric Antisecretory Activity in the Two Hour Pylorus Ligated (Shay) Rat
The pyloric ligation procedure in the rat was designed by Shay et al., Gastroenterology, 5,53 (1945) for the study of perforating gastric ulcers; however, as the method became known, it was also employed as a means of studying rat gastric secretion, Shay et al., Gastroenterology, 26, 906 (1954), Brodie, D. A., Am. J. Dig. Dis., 11, 231 (1966). A modification of this procedure is presently used to evaluate compounds for gastric antisecretory activity.
Male Long Evans rats, 280-300 gm., are used. The animals are placed in individual cages and fasted for 24 hours with free access to water. Under ether anesthesia, the stomach is reached through a midline incision, and a cotton-thread ligature is placed around the pylorus. After wound closure, ether administration is stopped and either BL-5641, cimetidine or vehicle are administered intraperitoneally in a volume of […]. BL-5641 and cimetidine are solubilized with one equivalent of HCl and brought to the proper volume with water. The animals are returned to their cages from which the water bottles have been removed and two hours later are sacrificed with ether. The stomach is removed and the two hour gastric collection is drained into a graduated test tube for volume determination. Titratable acidity is measured by titrating a one ml. sample to pH 7.0 with 0.02 N NaOH, using an Autoburet and an electrometric pH meter (Radiometer). Titratable acid output is calculated in microequivalents by multiplying the volume in milliliters by the acid concentration in milliequivalents per liter. The percent inhibition of acid output is calculated as follows [formula]

[1] = test system: histamine-induced gastric acid output; assay: Gastric antisecretory activity in the gastric fistula dog (histamine-induced gastric acid output); type: in vivo, dog (beagle)
Experimental: Determination of Gastric Antisecretory Activity in the Gastric Fistula Dog
Thomas type [Thomas, J. E., Proc. Soc. exp. Biol. Med., 46, 260 (1941)] stainless steel cannulae are inserted into the stomachs of beagle dogs (10-12 kg.) just orad to the pyloric gland area near the greater curvature to provide a chronic gastric fistula. Animals are allowed to recover for at least two months before any testing is done. Dogs are fasted overnight (~18 hours) with water ad lib prior to each experiment. The dogs are placed in a sling and an eight inch inside needle catheter (C. R. Baird, Inc.) with a two inch 17 gauge needle is inserted into a leg vein for purposes of drug administration. Gastric secretions are collected every 15 minutes by gravity drainage from the opened cannula. […] A modification of the procedure described by Grossman and Konturek, Gastroenterology, 66, 517 (1974) was followed. […] Each 15 minute sample of gastric juice is measured to the nearest 0.5 ml. and titratable acidity against 0.02 N NaOH (endpoint pH 7.0) is measured with an Autoburet and pH meter (radiometer). The percent inhibition of acid output is calculated as described in the pylorus ligated rat procedure.

[2] = in words; cited from earlier work
H2 receptors = conditions: in words; cited from earlier work
[3] = clinical, in words; cited from earlier work
peptic ulcer disease = conditions: clinical evaluation, in words; cited from earlier work
[4] = 10 μMole/kg. ip, 2 h (BL-5641 2.76 mg/kg; cimetidine 2.5 mg/kg)
[5] = 20 μMole/kg. ip, 2 h (BL-5641 5.53 mg/kg; cimetidine 5 mg/kg)
[6] = 40 μMole/kg. ip, 2 h (BL-5641 11.1 mg/kg; cimetidine 10 mg/kg)
[7] = 0.75 μM/kg. iv, 15 min, dog 23553, N=1
[8] = 0.75 μM/kg. iv, 30 min, dog 23553, N=1
[9] = 0.75 μM/kg. iv, 45 min, dog 23553, N=1
[10] = 0.75 μM/kg. iv, 60 min, dog 23553, N=1
[11] = 0.75 μM/kg. iv, 75 min, dog 23553, N=1
[12] = 0.75 μM/kg. iv, 90 min, dog 23553, N=1
[13] = 0.75 μM/kg. iv, 105 min, dog 23553, N=1
[14] = 0.75 μM/kg. iv, 120 min, dog 23553, N=1
[15] = 1.5 μM/kg. iv, 15 min, dog 24895, N=1
[16] = 1.5 μM/kg. iv, 30 min, dog 24895, N=1
[17] = 1.5 μM/kg. iv, 45 min, dog 24895, N=1
[18] = 1.5 μM/kg. iv, 60 min, dog 24895, N=1
[19] = 1.5 μM/kg. iv, 75 min, dog 24895, N=1
[20] = 1.5 μM/kg. iv, 90 min, dog 24895, N=1
[21] = 1.5 μM/kg. iv, 105 min, dog 24895, N=1
[22] = 1.5 μM/kg. iv, 120 min, dog 24895, N=1
[23] = 3 μM/kg. iv, 15 min, dog 23606, N=1
[24] = 3 μM/kg. iv, 30 min, dog 23606, N=1
[25] = 3 μM/kg. iv, 45 min, dog 23606, N=1
[26] = 3 μM/kg. iv, 60 min, dog 23606, N=1
[27] = 3 μM/kg. iv, 75 min, dog 23606, N=1
[28] = 3 μM/kg. iv, 90 min, dog 23606, N=1
[29] = 3 μM/kg. iv, 105 min, dog 23606, N=1
[30] = 3 μM/kg. iv, 120 min, dog 23606, N=1
[31] = 6 μM/kg. iv, 15 min, dog 22619, N=1
[32] = 6 μM/kg. iv, 30 min, dog 22619, N=1
[33] = 6 μM/kg. iv, 45 min, dog 22619, N=1
[34] = 6 μM/kg. iv, 60 min, dog 22619, N=1
[35] = 6 μM/kg. iv, 75 min, dog 22619, N=1
[36] = 6 μM/kg. iv, 90 min, dog 22619, N=1
[37] = 6 μM/kg. iv, 105 min, dog 22619, N=1
[38] = 6 μM/kg. iv, 120 min, dog 22619, N=1
[39] = 12 μM/kg. iv, 15 min, dog 24136, N=1
[40] = 12 μM/kg. iv, 30 min, dog 24136, N=1
[41] = 12 μM/kg. iv, 45 min, dog 24136, N=1
[42] = 12 μM/kg. iv, 60 min, dog 24136, N=1
[43] = 12 μM/kg. iv, 75 min, dog 24136, N=1
[44] = 12 μM/kg. iv, 90 min, dog 24136, N=1
[45] = 12 μM/kg. iv, 105 min, dog 24136, N=1
[46] = 12 μM/kg. iv, 120 min, dog 24136, N=1

- Histamine ED50 With 95% Confidence Limits (histamine H2-receptors): 12.44 µg/mL
- histamine H2-receptor antagonist potency vs cimetidine (histamine H2-receptors; isolated guinea pig atria, in words): more potent than cimetidine
- Concentration-Response Curve Displacement Factor (histamine H2-receptors): 32.7
Compound: C#CCN=C(NC#N)NCCSCc1[nH]cnc1C [BL-5641, N-Cyano-N'-{2-[(4-methyl-5-imidazolyl)methylthio]ethyl}-N"-propargylguanidine]
- % Inhibition of Acid Output (gastric acid output; [4]): 37%
- % Inhibition of Acid Output (gastric acid output; [5]): 61%
- % Inhibition of Acid Output (gastric acid output; [6]): 80%
- ED50 (gastric acid output; Rattus norvegicus, ip, 2 h; read-out: ED50 (inhibition of acid output)): ~11 µmol/kg
- potency in inhibition of gastric acid output vs cimetidine (gastric acid output; in words): at least as potent as cimetidine; also recorded: more potent than cimetidine
- % Inhibition Acid Output [1, 7]: 51%
- % Inhibition Acid Output [1, 8]: 38%
- % Inhibition Acid Output [1, 9]: 28%
- % Inhibition Acid Output [1, 10]: 28%
- % Inhibition Acid Output [1, 11]: 31%
- % Inhibition Acid Output [1, 12]: 43%
- % Inhibition Acid Output [1, 13]: 42%
- % Inhibition Acid Output [1, 14]: 46%
- % Inhibition Acid Output [1, 15]: 82%
- % Inhibition Acid Output [1, 16]: 72%
- % Inhibition Acid Output [1, 17]: 53%
- % Inhibition Acid Output [1, 18]: 49%
- % Inhibition Acid Output [1, 19]: 33%
- % Inhibition Acid Output [1, 20]: 7%
- % Inhibition Acid Output [1, 21]: 0%
- % Inhibition Acid Output [1, 22]: 0%
- % Inhibition Acid Output [1, 23]: 60%
- % Inhibition Acid Output [1, 24]: 59%
- % Inhibition Acid Output [1, 25]: 36%
- % Inhibition Acid Output [1, 26]: 34%
- % Inhibition Acid Output [1, 27]: 32%
- % Inhibition Acid Output [1, 28]: 42%
- % Inhibition Acid Output [1, 29]: 24%
- % Inhibition Acid Output [1, 30]: 0%
- % Inhibition Acid Output [1, 31]: 82%
- % Inhibition Acid Output [1, 32]: 99%
- % Inhibition Acid Output [1, 33]: 99%
- % Inhibition Acid Output [1, 34]: 95%
- % Inhibition Acid Output [1, 35]: 78%
- % Inhibition Acid Output [1, 36]: 76%
- % Inhibition Acid Output [1, 37]: 52%
- % Inhibition Acid Output [1, 38]: 53%
- % Inhibition Acid Output [1, 39]: 66%
- % Inhibition Acid Output [1, 40]: 99%
- % Inhibition Acid Output [1, 41]: 99%
- % Inhibition Acid Output [1, 42]: 99%
- % Inhibition Acid Output [1, 43]: 99%
- % Inhibition Acid Output [1, 44]: 93%
- % Inhibition Acid Output [1, 45]: 91%
- % Inhibition Acid Output [1, 46]: 73%
- duration of activity vs cimetidine ([1]; equal (equimolar) doses iv, in words): of longer duration with BL-5641 than with cimetidine; also recorded: longer duration of activity than cimetidine at equal doses
- degree of inhibition of gastric acid output vs cimetidine ([1]; equimolar doses iv, in words): consistently greater
- inhibitor of gastric acid output, potency vs cimetidine ([1]; iv, in words): more potent and/or longer acting than cimetidine; also recorded: more potent than cimetidine
- onset of effect on gastric acid output ([1]; iv, in words): immediate inhibitory effect on gastric acid output

Compound: CNC(=NC#N)NCCSCc1[nH]cnc1C [Cimetidine]
- Activity Ratio (histamine H2-receptors): 1.0
- Histamine ED50 With 95% Confidence Limits (histamine H2-receptors): 1.39 µg/mL
- Concentration-Response Curve Displacement Factor (histamine H2-receptors): 6.6
- half-life [2]: relatively short
- % Inhibition of Acid Output (gastric acid output; 5 μMole/kg. ip, 2 h (cimetidine 1.25 mg/kg)): 34%
- % Inhibition of Acid Output (gastric acid output; [4]): 40%
- % Inhibition of Acid Output (gastric acid output; [5]): 60%
- % Inhibition of Acid Output (gastric acid output; [6]): 66%
- ED50 (gastric acid output; Rattus norvegicus, ip, 2 h, read-out: ED50 (inhibition of acid output)): ~14 µmol/kg
- H2 antagonist potency/effectiveness (H2 receptors): as effective an H2 antagonist as metiamide
- toxicity (agranulocytosis) [3]: without producing agranulocytosis
- therapeutic effect in peptic ulcer disease (peptic ulcer disease): effective therapeutic agent in the treatment of peptic ulcer disease
- % Inhibition Acid Output [1, 7]: 50%
- % Inhibition Acid Output [1, 8]: 10%
- % Inhibition Acid Output [1, 9]: 24%
- % Inhibition Acid Output [1, 10]: 17%
- % Inhibition Acid Output [1, 11]: 35%
- % Inhibition Acid Output [1, 12]: 27%
- % Inhibition Acid Output [1, 13]: 25%
- % Inhibition Acid Output [1, 14]: 19%
- % Inhibition Acid Output [1, 15]: 73%
- % Inhibition Acid Output [1, 16]: 57%
- % Inhibition Acid Output [1, 17]: 60%
- % Inhibition Acid Output [1, 18]: 29%
- % Inhibition Acid Output [1, 19]: 0%
- % Inhibition Acid Output [1, 20]: 18%
- % Inhibition Acid Output [1, 21]: 0%
- % Inhibition Acid Output [1, 22]: 0%
- % Inhibition Acid Output [1, 23]: 43%
- % Inhibition Acid Output [1, 24]: 27%
- % Inhibition Acid Output [1, 25]: 15%
- % Inhibition Acid Output [1, 26]: 0%
- % Inhibition Acid Output [1, 27]: 17%
- % Inhibition Acid Output [1, 28]: 38%
- % Inhibition Acid Output [1, 29]: 8%
- % Inhibition Acid Output [1, 30]: 0%
- % Inhibition Acid Output [1, 31]: 84%
- % Inhibition Acid Output [1, 32]: 96%
- % Inhibition Acid Output [1, 33]: 73%
- % Inhibition Acid Output [1, 34]: 67%
- % Inhibition Acid Output [1, 35]: 65%
- % Inhibition Acid Output [1, 36]: 54%
- % Inhibition Acid Output [1, 37]: 40%
- % Inhibition Acid Output [1, 38]: 32%
- % Inhibition Acid Output [1, 39]: 63%
- % Inhibition Acid Output [1, 40]: 99%
- % Inhibition Acid Output [1, 41]: 89%
- % Inhibition Acid Output [1, 42]: 76%
- % Inhibition Acid Output [1, 43]: 54%
- % Inhibition Acid Output [1, 44]: 48%
- % Inhibition Acid Output [1, 45]: 41%
- % Inhibition Acid Output [1, 46]: 14%
- onset of effect on gastric acid output ([1]; iv, in words): immediate inhibitory effect on gastric acid output
